Reference: the supplement of paper PMC10307832

Tests used:
Assay in all cases: relative viability (nuclei count vs DMSO), 5 days (fraction); higher = more cells survive
[1] = compound: CC(C)C[C@H](NC(=O)[C@H](CCc1ccccc1)NC(=O)CN1CCOCC1)C(=O)N[C@@H](Cc1ccccc1)C(=O)N[C@@H](CC(C)C)C(=O)[C@@]1(C)CO1 [Carfilzomib] + CC(=O)c1c(C)c2cnc(Nc3ccc(N4CCNCC4)cn3)nc2n(C2CCCC2)c1=O [Palbociclib] (partner 0.5 µM)
How it was run: (§1)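 Lung cancer cell lines, seeded in 1536-well plates, were treated the following day by pin tool with a single drug or with five library-drug doses (not always all listed) in √10 steps on top of a fixed anchor-drug dose. Cells were fixed and nuclei stained in one step after 5 days, and nuclei were counted. Relative viability is the nuclei count for treated wells divided by that for vehicle wells, reported as medians of duplicate plates.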

Olaparib + Pictilisib = compound: O=C(c1cc(Cc2n[nH]c(=O)c3ccccc23)ccc1F)N1CCN(C(=O)C2CC2)CC1 [Olaparib] + CS(=O)(=O)N1CCN(Cc2cc3nc(-c4cccc5[nH]ncc45)nc(N4CCOCC4)c3s2)CC1 [Pictilisib] (partner 1 µM)
How it was run: as §1

Olaparib + Linsitinib = compound: O=C(c1cc(Cc2n[nH]c(=O)c3ccccc23)ccc1F)N1CCN(C(=O)C2CC2)CC1 [Olaparib] + C[C@]1(O)C[C@@H](c2nc(-c3ccc4ccc(-c5ccccc5)nc4c3)c3c(N)nccn32)C1 [Linsitinib] (partner 1 µM)
How it was run: as §1

Olaparib + Alpelisib = compound: O=C(c1cc(Cc2n[nH]c(=O)c3ccccc23)ccc1F)N1CCN(C(=O)C2CC2)CC1 [Olaparib] + Cc1nc(NC(=O)N2CCC[C@H]2C(N)=O)sc1-c1ccnc(C(C)(C)C(F)(F)F)c1 [Alpelisib] (partner 2 µM)
How it was run: as §1

Cell Line | relative viability ([1]; first compound 0.001 µM) | relative viability ([1]; first compound 0.003162 µM) | relative viability ([1]; first compound 0.01 µM) | relative viability ([1]; first compound 0.03162 µM) | relative viability ([1]; first compound 0.1 µM) | relative viability (Olaparib + Pictilisib; first compound 0.08 µM) | relative viability (Olaparib + Pictilisib; first compound 0.253 µM) | relative viability (Olaparib + Pictilisib; first compound 2.53 µM) | relative viability (Olaparib + Pictilisib; first compound 8 µM) | relative viability (Olaparib + Linsitinib; first compound 0.08 µM) | relative viability (Olaparib + Linsitinib; first compound 0.253 µM) | relative viability (Olaparib + Linsitinib; first compound 2.53 µM) | relative viability (Olaparib + Linsitinib; first compound 8 µM) | relative viability (Olaparib + Alpelisib; first compound 0.08 µM) | relative viability (Olaparib + Alpelisib; first compound 0.253 µM) | relative viability (Olaparib + Alpelisib; first compound 2.53 µM) | relative viability (Olaparib + Alpelisib; first compound 8 µM)
201T | 0.355 | 0.357 | 0.383 | 0.345 | 0.31 | 0.669 | 0.665 | 0.631 | 0.704 | 1.04 | 1.01 | 1.04 | 1.01 | 0.985 | 0.938 | 1.01 | 0.98
A549 |  |  |  |  |  | 0.636 | 0.398 | 0.456 | 0.376 | 0.761 | 0.567 | 0.588 | 0.436 | 0.822 | 0.63 | 0.671 | 0.589
A-427 | 0.543 | 0.56 | 0.515 | 0.509 | 0.188 | 0.697 | 0.571 | 0.547 | 0.584 | 1.12 | 1.03 | 1.03 | 0.851 | 1.14 | 1.06 | 0.855 | 0.809
ABC-1 | 0.831 | 0.736 | 0.441 | 0.273 | 0.253 | 0.916 | 0.777 | 0.65 | 0.625 | 1.1 | 0.918 | 0.644 | 0.556 | 0.958 | 1 | 0.96 | 0.981
BEN | 0.491 | 0.465 | 0.455 | 0.499 | 0.319 | 0.52 | 0.551 | 0.593 | 0.674 | 0.89 | 0.749 | 1.05 | 0.982 | 1.02 | 1.02 | 1.19 | 0.995
CAL-12T | 0.507 | 0.507 | 0.586 | 0.165 | 0.145 | 0.772 | 0.413 | 0.452 | 0.439 | 1.05 | 0.751 | 0.825 | 0.666 | 1.79 | 1.03 | 1.25 | 1.12
COR-L23 | 0.29 | 0.305 | 0.211 | 0.0606 | 0.064 | 0.918 | 0.674 | 0.724 | 0.385 | 1.09 | 0.852 | 0.716 | 0.432 | 0.811 | 0.586 | 0.532 | 0.357
COR-L 105 | 0.413 | 0.414 | 0.35 | 0.317 | 0.329 | 0.389 | 0.392 | 0.415 | 0.387 | 1.03 | 0.804 | 0.706 | 0.591 | 1.17 | 1.02 | 0.87 | 0.639
Calu-6 |  |  |  |  |  | 1.12 | 0.825 | 0.858 | 0.75 | 1.06 | 0.866 | 0.824 | 0.717 | 1.08 | 1.04 | 0.965 | 0.729
ChaGo-K-1 | 0.926 | 0.931 | 0.907 | 0.313 | 0.153 | 1.27 | 0.674 | 0.75 | 0.661 |  |  |  |  |  |  |  | 
EBC-1 |  |  |  |  |  | 0.392 | 0.345 | 0.368 | 0.304 | 1.07 | 0.824 | 0.848 | 0.751 | 0.901 | 0.794 | 0.68 | 0.633
EKVX | 0.369 | 0.474 | 0.427 |  | 0.137 | 0.493 | 0.444 | 0.41 | 0.477 | 1.38 | 0.91 | 1.01 | 1.06 | 1.11 | 0.872 | 0.844 | 0.903
EMC-BAC-2 | 0.531 | 0.539 | 0.51 | 0.455 | 0.316 | 0.662 | 0.5 | 0.524 | 0.496 | 0.945 | 0.792 | 0.85 | 0.621 | 0.737 | 0.751 | 0.636 | 0.621
EPLC-272H | 0.285 | 0.337 | 0.317 | 0.114 | 0.0482 | 0.311 | 0.284 | 0.278 | 0.283 | 1.25 | 1.11 | 1.21 | 1.03 | 1.03 | 0.871 | 1.09 | 0.789
H3255 | 0.334 | 0.331 | 0.309 | 0.231 | 0.264 | 0.478 | 0.406 | 0.445 | 0.386 | 1.04 | 0.912 | 0.932 | 0.825 | 0.751 | 0.752 | 0.652 | 0.647
HARA | 0.28 | 0.257 | 0.306 | 0.182 | 0.0965 | 0.407 | 0.454 | 0.567 | 0.37 | 1.07 | 0.829 | 1.04 | 0.792 | 0.935 | 0.728 | 0.959 | 0.76
HCC-15 | 0.706 | 0.688 | 0.751 | 0.61 | 0.206 | 0.866 | 0.647 | 0.678 | 0.627 | 0.927 | 0.828 | 0.836 | 0.768 | 0.988 | 0.815 | 0.905 | 0.724
HCC-44 | 1.02 | 0.938 | 0.999 | 0.999 | 0.69 | 0.697 | 0.552 | 0.7 | 0.544 | 0.654 | 0.562 | 0.713 | 0.682 | 0.89 | 0.721 | 0.914 | 0.839
HCC-78 | 0.431 | 0.454 | 0.528 | 0.439 | 0.348 | 0.241 | 0.204 | 0.208 | 0.196 | 0.732 | 0.456 | 0.533 | 0.473 | 0.424 | 0.328 | 0.445 | 0.365
HCC-366 | 0.374 | 0.361 | 0.396 | 0.327 | 0.0404 | 0.135 | 0.179 | 0.11 | 0.138 | 0.67 | 0.479 | 0.447 | 0.303 | 0.392 | 0.31 | 0.3 | 0.15
